Converted amounts (≈) assume the structure as drawn.

The conditions of one data set: 20 °C.
By solubility is commonly meant how much of the substance goes into solution per volume. Read a high solubility as much dissolved substance. `CI` had a solubility of 97.2 mM (≈ 13800 µg/mL). Same read-out and setting: the figure for `CF` is 667 mM (≈ 22700 µg/mL).

Still in this data set, the particulars now being: 21 °C.
Take `CC(F)F`: the solubility was found to be 48.5 mM (≈ 3200 µg/mL). That is a millimolar value.

Still in this data set, the particulars now being: 25 °C.
`CC(Cl)CCl` (stereo not drawn) displayed a solubility of 24.8 mM (≈ 2800 µg/mL). As for `CBr`, the solubility worked out at 160 mM (≈ 15200 µg/mL). Compound `FC(F)(F)C(F)(F)Cl` registered a solubility of 0.382 mM (≈ 59 µg/mL). Regarding `C=C(F)F`, the solubility was 197 mM (≈ 12600 µg/mL). In turn, `BrC(Br)Br` had a solubility of 13.8 mM (≈ 3490 µg/mL). This solubility is about 14-fold lower than that of the compound before. For the compound `FC(F)=C(F)F`, the solubility was 1.58 mM (≈ 158 µg/mL). Still for that read-out and setting: the figure for `BrC=CBr` is 34.7 mM (≈ 6440 µg/mL).

On to `FC(F)(F)Br`, for which the solubility worked out at 2.15 mM (≈ 320 µg/mL).

On to `FC(F)Cl`, for which the solubility amounted to 32 mM (≈ 2770 µg/mL).

Turning to `FC(F)(F)F`, the solubility was determined as 0.214 mM (≈ 18.8 µg/mL).

Consider `FC(F)F`, for which the solubility is 58.4 mM (≈ 4090 µg/mL).

In the case of `ClC(Cl)(Cl)Cl`, the solubility was determined as 5.16 mM (≈ 793 µg/mL).

`Clc1ccccc1` had a solubility of 4.42 mM (≈ 498 µg/mL). This solubility and that of the compound before are within 1.5-fold of each other. On the same count and under the same terms, the figure for `FC(Cl)Cl` is 183 mM (≈ 18800 µg/mL). The same measure, in the same setting: the result for `ClCCl` reads 153 mM (≈ 13000 µg/mL).

(Values after the OPERA property sets (Mansouri et al. 2018).)
